Values after ≈ are worked out from the molar mass of the structure shown. Values joined by “and” are separate entries in the source; they are usually repeats but may differ in a detail not shown here. Identical values can stand only once.
Experiments:
Experiment in all cases: ≥ marks a high value that may be exact or a test limit, other limits are often not marked, values filed in µg/mL are converted to µM
Acinetobacter baumannii = test system: Acinetobacter baumannii
Enterococcus faecium = test system: Enterococcus faecium
[1] = test system: Escherichia coli ATCC 25922
Klebsiella pneumoniae = test system: Klebsiella pneumoniae
Pseudomonas aeruginosa = test system: Pseudomonas aeruginosa
[2] = test system: Staphylococcus aureus ATCC 43300
Streptococcus pneumoniae = test system: Streptococcus pneumoniae
Bacillus cereus = test system: Bacillus cereus
[3] = test system: Bacillus subtilis ATCC 6633
[4] = test system: Candida albicans ATCC 2002
Shigella dysenteriae = test system: Shigella dysenteriae
[5] = test system: Staphylococcus aureus ATCC 2592
[6] = test system: Corynebacterium xerosis C875
Escherichia coli DC2 = test system: Escherichia coli DC2
Escherichia coli UB1005 = test system: Escherichia coli UB1005
[7] = test system: Staphylococcus epidermidis C621
Bacillus subtilis = test system: Bacillus subtilis
Escherichia coli ML-35p = test system: Escherichia coli ML-35p
[8] = test system: Pseudomonas aeruginosa ATCC 27853
[9] = test system: Staphylococcus aureus ATCC 25923
Candida albicans = test system: Candida albicans
Escherichia coli = test system: Escherichia coli
Staphylococcus aureus = test system: Staphylococcus aureus
[10] = test system: Pseudomonas aeruginosa CMCCB 10104
[11] = test system: Pseudomonas aeruginosa PAO1

| MIC [1] [µM] | MIC [4] [µM] | MIC [6] [µM] | MIC (Escherichia coli DC2) [µM] | MIC (Escherichia coli UB1005) [µM] | MIC [7] [µM] | MIC [8] [µM] | Compound | other results |
| --- | --- | --- | --- | --- | --- | --- | --- | --- |
| > 16 |  |  |  |  |  |  | CC[C@H](C)[C@H](NC(=O)CNC(=O)[C@H](Cc1cnc[nH]1)NC(=O)CNC(=O)CN)C(=O)N[C@@H](CCCN=C(N)N)C(=O)N[C@@H](CCCN=C(N)N)C(=O)N[C@H](C(=O)N[C@H](C(=O)N[C@@H](CCCN=C(N)N)C(=O)N[C@@H](CCCCN)C(=O)N[C@H](C(=O)N[C@H](C(=O)N[C@@H](Cc1cnc[nH]1)C(=O)N[C@H](C(=O)N[C@H](C(=O)N[C@@H](CCCCN)C(=O)N[C@@H](CCCCN)C(N)=O)[C@@H](C)CC)[C@@H](C)CC)[C@@H](C)CC)[C@@H](C)CC)[C@@H](C)CC)[C@@H](C)CC [GGHGIRRIIRKIIHIIKK] | MIC (Acinetobacter baumannii): 2.7 µM (≈ 5.69 µg/mL); MIC (Enterococcus faecium): 16 µM (≈ 33.7 µg/mL); MIC (Klebsiella pneumoniae): 16 µM (≈ 33.7 µg/mL); MIC (Pseudomonas aeruginosa): > 16 µM; MIC [2]: 16 µM (≈ 33.7 µg/mL); MIC (Streptococcus pneumoniae): 16 µM (≈ 33.7 µg/mL) |
| 16 (≈ 22 µg/mL) | ≥ 32.1 |  |  |  |  |  | CC[C@H](C)[C@H](NC(=O)CN)C(=O)N[C@@H](CC(C)C)C(=O)N[C@@H](CC(=O)O)C(=O)N1CCC[C@H]1C(=O)N[C@H](C(=O)N[C@@H](CCCCN)C(=O)N[C@@H](C)C(=O)N[C@@H](Cc1ccccc1)C(=O)N[C@@H](C)C(=O)N[C@@H](CCCCN)C(=O)N[C@@H](C)C(=O)N[C@@H](C)C(=O)NCC(N)=O)[C@@H](C)CC [GILDPIKAFAKAAG] | MIC (Bacillus cereus): 16 µM (≈ 22 µg/mL); MIC [3]: 8.02 µM (≈ 11 µg/mL); MIC (Pseudomonas aeruginosa): 8.02 µM (≈ 11 µg/mL); MIC (Shigella dysenteriae): 4.01 µM (≈ 5.5 µg/mL); MIC [5]: 4.01 µM (≈ 5.5 µg/mL) |
|  |  | 2 (≈ 4.5 µg/mL) | ≥ 64 | ≥ 64 | ≥ 64 |  | C[C@H](NC(=O)[C@H](C)NC(=O)[C@H](C)NC(=O)[C@H](C)NC(=O)[C@H](C)NC(=O)[C@H](C)NC(=O)[C@H](C)NC(=O)[C@H](CCCCN)NC(=O)[C@@H](N)CCCCN)C(=O)N[C@@H](C)C(=O)N[C@@H](C)C(=O)N[C@@H](C)C(=O)N[C@@H](C)C(=O)N[C@@H](C)C(=O)N[C@@H](Cc1c[nH]c2ccccc12)C(=O)N[C@@H](C)C(=O)N[C@@H](C)C(=O)N[C@@H](C)C(=O)N[C@@H](C)C(=O)N[C@@H](C)C(=O)N[C@@H](C)C(=O)N[C@@H](CCCCN)C(=O)N[C@@H](CCCCN)C(=O)N[C@@H](CCCCN)C(=O)N[C@@H](CCCCN)C(N)=O [KKAAAAAAAAAAAAWAAAAAAKKKK] |  |
|  | 4.23 (≈ 15 µg/mL) |  |  |  |  | > 28.2 | CC[C@H](C)[C@H](NC(=O)CNC(=O)[C@H](CCSC)NC(=O)CNC(=O)[C@H](C)NC(=O)[C@H](CO)NC(=O)[C@H](CCCCN)NC(=O)[C@H](C)NC(=O)[C@H](CC(C)C)NC(=O)[C@H](CC(=O)O)NC(=O)[C@@H](NC(=O)[C@H](C)NC(=O)[C@@H](NC(=O)[C@@H](NC(=O)[C@H](CCCCN)NC(=O)[C@@H](NC(=O)[C@H](CCCCN)NC(=O)[C@H](CC(=O)O)NC(=O)[C@H](CCCN=C(N)N)NC(=O)[C@@H](NC(=O)[C@@H](N)CO)[C@@H](C)CC)[C@@H](C)CC)[C@@H](C)O)[C@@H](C)CC)[C@@H](C)CC)C(=O)N[C@@H](CC(C)C)C(=O)N[C@@H](CCCCN)C(=O)N[C@H](C(=O)N[C@@H](CC(C)C)C(=O)N[C@H](C(=O)N[C@H]1CSSC[C@@H](C(=O)O)NC(=O)[C@H](CO)NC(=O)[C@H](CCCCN)NC(=O)[C@H](CC(=O)O)NC(=O)[C@H](CC(C)C)NC(=O)[C@H](CCCCN)NC1=O)[C@@H](C)CC)[C@@H](C)O [SIRDKIKTIAIDLAKSAGMGILKTLICKLDKSC] | MIC (Bacillus subtilis): 5.28 µM (≈ 18.7 µg/mL); MIC (Escherichia coli ML-35p): 7.05 µM (≈ 25 µg/mL); MIC [9]: 4.65 µM (≈ 16.5 µg/mL) |
|  |  | 8 (≈ 20.1 µg/mL) | ≥ 32 | ≥ 64 | ≥ 64 |  | C[C@H](NC(=O)[C@H](C)NC(=O)[C@H](C)NC(=O)[C@H](CCCN=C(N)N)NC(=O)[C@H](C)NC(=O)[C@H](C)NC(=O)[C@H](C)NC(=O)[C@H](CCCCN)NC(=O)[C@@H](N)CCCCN)C(=O)N[C@@H](C)C(=O)N[C@@H](C)C(=O)N[C@@H](CCCN=C(N)N)C(=O)N[C@@H](C)C(=O)N[C@@H](C)C(=O)N[C@@H](Cc1c[nH]c2ccccc12)C(=O)N[C@@H](C)C(=O)N[C@@H](C)C(=O)N[C@@H](CCCN=C(N)N)C(=O)N[C@@H](C)C(=O)N[C@@H](C)C(=O)N[C@@H](C)C(=O)N[C@@H](CCCCN)C(=O)N[C@@H](CCCCN)C(=O)N[C@@H](CCCCN)C(=O)N[C@@H](CCCCN)C(N)=O [KKAAARAAAAARAAWAARAAAKKKK] |  |
| 2.54 (≈ 5 µg/mL) | 3.81 (≈ 7.49 µg/mL) |  |  |  |  |  | CC[C@H](C)[C@H](NC(=O)CNC(=O)[C@H](CO)NC(=O)[C@H](CC(C)C)NC(=O)[C@H](CC(C)C)NC(=O)CN)C(=O)N[C@@H](CC(C)C)C(=O)NCC(=O)N[C@@H](C)C(=O)NCC(=O)N[C@@H](CCCCN)C(=O)N[C@@H](Cc1cnc[nH]1)C(=O)N[C@H](C(=O)N[C@H](C(=O)N[C@H]1CSSC[C@@H](C(=O)O)NC(=O)[C@H](CC(C)C)NC(=O)CNC(=O)[C@H](CO)NC(=O)[C@H](CC(C)C)NC(=O)CNC1=O)C(C)C)[C@@H](C)CC [GLLSGILGAGKHIVCGLSGLC] | MIC (Bacillus subtilis): 4.76 µM (≈ 9.36 µg/mL); MIC (Candida albicans): 4.76 µM (≈ 9.36 µg/mL); MIC (Escherichia coli): > 50.8 µM; MIC (Shigella dysenteriae): 1.27 µM (≈ 2.5 µg/mL); MIC [5]: 1.27 µM (≈ 2.5 µg/mL); MIC (Staphylococcus aureus): 38.1 µM (≈ 74.9 µg/mL) |
| 4 (≈ 8.01 µg/mL) |  | 0.5 (≈ 1 µg/mL) | 0.5 (≈ 1 µg/mL) | 1 (≈ 2 µg/mL) | 4 (≈ 8.01 µg/mL) | 8 (≈ 16 µg/mL) | C[C@H](NC(=O)[C@H](C)NC(=O)[C@H](Cc1ccccc1)NC(=O)[C@H](C)NC(=O)[C@H](C)NC(=O)[C@H](Cc1c[nH]c2ccccc12)NC(=O)[C@H](C)NC(=O)[C@H](C)NC(=O)[C@H](Cc1ccccc1)NC(=O)[C@H](C)NC(=O)[C@H](C)NC(=O)[C@H](CCCN=C(N)N)NC(=O)[C@H](CCCN=C(N)N)NC(=O)[C@H](CCCN=C(N)N)NC(=O)[C@H](CCCN=C(N)N)NC(=O)[C@H](CCCN=C(N)N)NC(=O)[C@@H](N)CCCN=C(N)N)C(N)=O [RRRRRRAAFAAWAAFAA] |  |
| 1.67 (≈ 5.64 µg/mL) |  |  |  |  |  | 1.57 (≈ 5.29 µg/mL) | CC[C@H](C)[C@H](NC(=O)[C@@H](NC(=O)[C@@H](NC(=O)[C@H](CCCN=C(N)N)NC(=O)[C@H](Cc1cnc[nH]1)NC(=O)[C@H](Cc1ccccc1)NC(=O)[C@H](Cc1cnc[nH]1)NC(=O)CNC(=O)[C@H](CCCCN)NC(=O)[C@H](CO)NC(=O)[C@H](CCCCN)NC(=O)[C@H](CC(=O)O)NC(=O)[C@H](Cc1cnc[nH]1)NC(=O)[C@H](CC(=O)O)NC(=O)[C@H](CCCN=C(N)N)NC(=O)CNC(=O)[C@H](CCC(=O)O)NC(=O)[C@H](CCC(N)=O)NC(=O)[C@H](CCCCN)NC(=O)[C@H](CC(N)=O)NC(=O)[C@@H](N)Cc1cnc[nH]1)C(C)C)C(C)C)C(=O)N[C@@H](Cc1cnc[nH]1)C(=O)N[C@@H](Cc1cnc[nH]1)C(=O)N[C@@H](CCCCN)C(=O)NCC(=O)NCC(=O)N[C@@H](CCCCN)C(=O)N[C@@H](C)C(=O)N[C@@H](Cc1cnc[nH]1)C(=O)O [HNKQEGRDHDKSKGHFHRVVIHHKGGKAH] | MIC (Escherichia coli ML-35p): 2.2 µM (≈ 7.44 µg/mL); MIC (Escherichia coli): 1.05 µM and 1.17 µM; MIC [10]: 2.17 µM (≈ 7.34 µg/mL); MIC [11]: 3.81 µM (≈ 12.9 µg/mL); MIC [9]: > 30 µM; MIC [2]: > 30 µM |

| Compound | MIC [1] [µM] | MIC [4] [µM] | MIC [6] [µM] | MIC (Escherichia coli DC2) [µM] | MIC (Escherichia coli UB1005) [µM] | MIC [7] [µM] | MIC [8] [µM] | other results |
| --- | --- | --- | --- | --- | --- | --- | --- | --- |
| CC(C)[C@H](NC(=O)[C@H](C)NC(=O)[C@H](C)NC(=O)[C@H](C)NC(=O)[C@H](CCCCN)NC(=O)[C@@H](N)CCCCN)C(=O)N[C@@H](C)C(=O)N[C@@H](C)C(=O)N[C@@H](C)C(=O)N[C@@H](C)C(=O)N[C@@H](C)C(=O)N[C@H](C(=O)N[C@@H](C)C(=O)N[C@@H](C)C(=O)N[C@@H](Cc1c[nH]c2ccccc12)C(=O)N[C@@H](C)C(=O)N[C@@H](C)C(=O)N[C@H](C(=O)N[C@@H](C)C(=O)N[C@@H](C)C(=O)N[C@@H](C)C(=O)N[C@@H](CCCCN)C(=O)N[C@@H](CCCCN)C(=O)N[C@@H](CCCCN)C(=O)N[C@@H](CCCCN)C(N)=O)C(C)C)C(C)C [KKAAAVAAAAAVAAWAAVAAAKKKK] |  |  | 0.5 (≈ 1.17 µg/mL) | ≥ 32 | ≥ 32 | ≥ 32 |  |  |

From DBAASP
